We go through two molecules from patent publication US11801232B2, “Targeting of ARID1A-deficient cancers by inhibiting de novo pyrimidine synthesis pathway” (YALE UNIVERSITY, priority 2019, dated 2023).

Test [1] concerns ES2 ARID1A-knockdown cells (shARID1A). Put plainly: Cell growth after 72 h drug treatment, ARID1A-knockdown versus control cells. The note with it: 72 h treatment; compared to untransfected or shCon ES2 cells. It counts as cell-based, human. As to the method:
Short Hairpin RNA (shRNA)-Mediated Knockdown and Expression of ARID1A in ovarian and endometrial carcinoma cells. shRNA lentiviral supernatants were produced using standard protocols, as previously described^8. Vectors were transfected into HEK293FT cells using X-tremeGENE 9 DNA Transfection Reagent (from Roche). Retroviral supernatants isolated at 48 h were diluted 1:1 in culture medium and used to infect ARID1A-wildtype ES2 and KLE cell lines. Stably transfected subclones were expanded using puromycin (from Dot Scientific) drug selection. For expression of ARID1A in the ARID1A-mutant HEC-1-A cell line, pCIN4-HA-ARID1A was transfected using X-tremeGENE 9 DNA Transfection Reagent (from Roche), followed by selection with G418 (from Gibco). For expression of ARID1A in the ARID1A-mutant SKOV3 and OVISE cell lines, V5/His-tagged pLenti-puro-LacZ and pLenti-puro-ARID1A were transfected using lentivirus. […]
Cytotoxicity assay. […] Cell number was determined using a sulforhodamine B (SRB) assay, as previously described^23. […] After washing, protein-bound dye was solubilized with 10 mM unbuffered Tris-base solution (pH 10.5) and detected at 510 nm using a microplate reader. Percentage of cell-growth was calculated using the following formula: % cell growth=[(Absorbance sample)/(Absorbance untreated)]×100 […]

In test [2] the test system is ES2 cells. In words: Cytotoxicity (SRB) assay with CalcuSyn combination analysis. It counts as cell-based. Particulars: Homo sapiens, ES-2, Table 2; ES2 parental; VX970 alone; read-out: Dm. As to the method:
Cytotoxicity assay. Cells were seeded in 96-well plates, with 2000 cells in 100 μL/well, and cultured for 24 h. The cells were treated with serial dilutions of drugs or without drug for an additional 72 h. Cell number was determined using a sulforhodamine B (SRB) assay, as previously described^23. Briefly, cells were fixed with 20% trichloroacetic acid (TCA), air-dried, and stained with 0.4% SRB dissolved in 1% acetic acid. After washing, protein-bound dye was solubilized with 10 mM unbuffered Tris-base solution (pH 10.5) and detected at 510 nm using a microplate reader. Percentage of cell-growth was calculated using the following formula: % cell growth=[(Absorbance sample)/(Absorbance untreated)]×100 […] Datasets from at least three independent experiments were combined, and each table cell contains the mean value±SD. SCR, ES2-shScrambled. N/A, not applicable. Statistical analysis was carried out by one-way ANOVA with Bonferroni's post-hoc test, and differences were considered significant at **P<0.01 and ***P<0.001 as compared to the ES2 parental group with the same drug treatment. […] CIwt value was calculated using the formula: […] Datasets from at least three independent experiments were combined, and each table cell contains the mean value±SD. Teri, teriflunomide. SCR, ES2-shScrambled. N/A, not applicable. Statistical analysis was carried out by one-way ANOVA with Bonferroni's post-hoc test, and differences were considered significant at ***P<0.001 as compared to the ES2 parental group with the same drug treatment.

Test [3] relates to ES2 shARID1A (a) cells. The test is described as above. The class given is cell-based. Particulars: Homo sapiens, Table 2, VX970 alone, read-out: Dm. On the procedure:
(§1) Short Hairpin RNA (shRNA)-Mediated Knockdown and Expression of ARID1A in ovarian and endometrial carcinoma cells. shRNA lentiviral supernatants were produced using standard protocols, as previously described^8. Vectors were transfected into HEK293FT cells using X-tremeGENE 9 DNA Transfection Reagent (from Roche). Retroviral supernatants isolated at 48 h were diluted 1:1 in culture medium and used to infect ARID1A-wildtype ES2 and KLE cell lines. Stably transfected subclones were expanded using puromycin (from Dot Scientific) drug selection. For expression of ARID1A in the ARID1A-mutant HEC-1-A cell line, pCIN4-HA-ARID1A was transfected using X-tremeGENE 9 DNA Transfection Reagent (from Roche), followed by selection with G418 (from Gibco). For expression of ARID1A in the ARID1A-mutant SKOV3 and OVISE cell lines, V5/His-tagged pLenti-puro-LacZ and pLenti-puro-ARID1A were transfected using lentivirus. Lentivirus was produced using HEK293FT cells with the second-generation packaging system pSPAX2 (Addgene plasmid) and pMD2.G (Addgene plasmid). Stably transfected subclones were expanded using puromycin and blasticidin (Gibco) drug selection.
(§2) Cytotoxicity assay. Cells were seeded in 96-well plates, with 2000 cells in 100 μL/well, and cultured for 24 h. The cells were treated with serial dilutions of drugs or without drug for an additional 72 h. Cell number was determined using a sulforhodamine B (SRB) assay, as previously described^23. Briefly, cells were fixed with 20% trichloroacetic acid (TCA), air-dried, and stained with 0.4% SRB dissolved in 1% acetic acid. After washing, protein-bound dye was solubilized with 10 mM unbuffered Tris-base solution (pH 10.5) and detected at 510 nm using a microplate reader. Percentage of cell-growth was calculated using the following formula: % cell growth=[(Absorbance sample)/(Absorbance untreated)]×100
(§3) Using CalcuSyn software (Biosoft), dose-effect curves were generated, and drug concentrations corresponding to a 50% decrease in cell number (IC50) were determined.
(§4) Drug concentrations corresponding to a median effect (Dm) are shown for each treatment; teriflunomide concentration is shown for combination (Combo) treatment at a 10:1 fixed molar ratio of two drugs, teriflunomide and AZD6738. […] Datasets from at least three independent experiments were combined, and each table cell contains the mean value±SD. SCR, ES2-shScrambled. N/A, not applicable. Statistical analysis was carried out by one-way ANOVA with Bonferroni's post-hoc test, and differences were considered significant at **P<0.01 and ***P<0.001 as compared to the ES2 parental group with the same drug treatment.
(§5) Drug concentrations (in μM for teriflunomide, in nM for […]) corresponding to median effect (Dm) are shown for each treatment; teriflunomide concentration is shown for combination (Combo) treatment at a 200:1 fixed molar ratio of the two drugs, teriflunomide and VX-970. […] CIwt<0.8, =0.8 to 1.2, and >1.2 indicates synergism, an additive effect, and antagonism, respectively. CIwt value was calculated using the formula: CIwt=(ED50+2ED75+3ED90)/6. Datasets from at least three independent experiments were combined, and each table cell contains the mean value±SD. Teri, teriflunomide. SCR, ES2-shScrambled. N/A, not applicable. Statistical analysis was carried out by one-way ANOVA with Bonferroni's post-hoc test, and differences were considered significant at ***P<0.001 as compared to the ES2 parental group with the same drug treatment.

Test [4] concerns ES2 shARID1A (b) cells. Described as above. It counts as cell-based. Particulars: Homo sapiens, Table 2, VX970 alone, read-out: Dm. On the procedure:
as §1, §2, §3, §4, §5

Test [5] concerns ES2-shScrambled (SCR) cells. Described as above. It counts as cell-based. Particulars: Homo sapiens, Table 2, VX970 alone, read-out: Dm. On the procedure: as §1, §2, §3, §4, §5
Test [6] has as its system ARID1A-knockout HCT116 cells. Put plainly: Cell growth after 72 h drug treatment, ARID1A-knockout versus wild-type cells. The class given is cell-based, human. Particulars: 72 h treatment; compared to ARID1A wild-type HCT116 control cells. As to the method:
Cell Lines. Adherent cell lines were cultured in RPMI 1640 (from Gibco) supplemented with 10% fetal bovine serum (from Gibco) and 1% penicillin-streptomycin (from Gibco) at 37° C., 5% CO2. Low-passage-number cells were used, and all cell lines tested negative for mycoplasma using the MycoAlert Mycoplasma Detection Kit (from Lonza). The following ovarian and endometrial cancer cell lines were used: ES26, KLE5, SKOV3, OVISE (from JCRB Cell Bank), and HEC-1-A5 cells and their stably transfected subclones, as described below. Cell lines were authenticated using the GenePrint10 kit (form Promega) and matching to their original profiles (at ATCC). ARID1A protein expression status was confirmed by immunoblotting. HEK293FT cells were from Thermo Fisher Scientific. ARID1A-knockout HCT116 (homozygous truncating mutations, Q456*/Q456*) and ARID1A-wildtype HCT116 colorectal carcinoma cells were from Horizon Discovery.
Cytotoxicity assay. Cells were seeded in 96-well plates, with 2000 cells in 100 μL/well, and cultured for 24 h. […] Cell number was determined using a sulforhodamine B (SRB) assay, as previously described^23. […] After washing, protein-bound dye was solubilized with 10 mM unbuffered Tris-base solution (pH 10.5) and detected at 510 nm using a microplate reader. Percentage of cell-growth was calculated using the following formula: % cell growth=[(Absorbance sample)/(Absorbance untreated)]×100 […]

In test [7] the test system is γ-H2AX. In words: Immunoblot and immunofluorescence of γ-H2AX in ES2 cells. The class given is cell-based, human. Particulars: ARID1A-knockdown ES2 cells; teriflunomide 15 μM, AZD6738 1.5 μM, VX-970 0.075 μM; 24-72 h. On the procedure:
Immunoblot Analysis and Co-Immunoprecipitation Assay. For immunoblotting experiments, cells were lysed in BC200 lysis buffer [20 mM Tris-HCl (pH 7.5), 200 mM NaCl, 1 mM EDTA, 0.2% Nonidet P-40 (NP-40), freshly added complete protease inhibitor cocktail (from Roche), and PhosSTOP phosphatase inhibitor (from Roche)] or in boiling SDS lysis buffer [1% SDS and 10 mM Tris-CI (pH 7.5)], as previously described^21. Protein concentrations were quantified using a modified Lowry assay, and equal protein amounts were loaded onto a 10% SDS-PAGE gel and separated by gel electrophoresis, followed by transfer to a nitrocellulose membrane. The nitrocellulose membrane was stained with Ponceau S to confirm equal protein loading and then blocked in 2% BSA in Tris-buffered saline with 0.1% Tween-20 (tris buffered saline with tween, or TBST). Primary antibody incubation was done for 2 h at room temperature or, for phospho-specific antibodies, overnight at 4° C. An HRP-conjugated secondary antibody was used, followed by detection using enhanced chemiluminescence substrate (from Pierce). Autoradiograph images were scanned and saved as unmodified TIFF images, and densitometry analysis was done with ImageJ (from NIH) software.
Immunofluorescence. […] Images of cells were acquired using a BZ-X710 fluorescence microscope (from KEYENCE) and analyzed using ImageJ (from NIH).
On the technique in general: A western blot detects proteins with antibodies after separation by electrophoresis.

With `CCc1cncnc1N1CCN(Cc2nc3ccc(C(F)(F)F)cc3[nH]2)CC1` [PF-4708671], the “Drug sensitivity of ARID1A-knockdown ES2 cells” value in test [1] is given as “significantly hypersensitive”.

Consider `CNCc1ccc(-c2cc(-c3nc(-c4ccc(S(=O)(=O)C(C)C)cc4)cnc3N)on2)cc1` [VX-970], for which the IC50 was 165 ± 3.84 nM in test [2], 54.3 ± 1.31 nM in test [3], 63.3 ± 10.4 nM in test [4] and 170 ± 9.24 nM in test [5]. Further, the “Drug sensitivity of ARID1A-knockout HCT116 cells” value in test [6] is “more sensitive”. In addition, the γ-H2AX protein levels result in test [7] is “increased”.
